# Laboratory results as given in patent publication US8349583B2, “Distinguishing cells in a sample by inactivating extracellular enzyme before releasing intracellular enzyme” (priority 2005, dated 2013).
# “And” between values parts separate entries of the source, which are not always exact repeats. Equal entries are not always repeated. Marks after values point to notes of the source that are not given here.
# Assays:
# Format in all cases: biochemical
# [1] = Effect of incubation pH on purified AK activity (luciferin/luciferase)
# Procedure: (§1) Experimental work used adenylate kinase-generated ATP to drive a luciferin/luciferase activity, giving results in RLUs as a quantitative measure of initial ATP levels. All AK assays were performed at pH 7.5, and 37° C. Results of the assay were read at ambient temperature.
# To assess the effect of pH on AK activity, purified enzyme was incubated for 1 hour at various pH, with pH 7.5 being the control (normal assay conditions). AK activity was measured by using the bioluminescent luciferin/luciferase to detect AK-generated ATP.
# [2] = AK activity after transient pH drop or acidic incubation at pH 4; conditions: for AK activity relative to control: listed as AK alone
# Procedure: as §1
# In further experiments, three treatment conditions were tested: (i) a control, run at pH 7.5 with no pH change; (ii) a transient pH drop before the assay, where pH was reduced to pH 4 and then returned to pH 7.5; and (iii) an acidic incubation, where pH was reduced to pH 4 for 15 minutes. AK activity was then assessed. In parallel tests, the effect of these pH conditions on the viability of E. coli and E. faecalis was assessed.
# [3] = test system: bacterial adenylate kinase; assay: AK reduction by different proteases over time for different organisms; conditions: 37° C., 10 to 120 minutes; trypsin 1000, papain 10, proteinase K 2.5, chymotrypsin 1 U/ml
# Procedure: • 1. Bacteria were scraped from plates and inoculated in approximately 20 ml of broth only. These were incubated overnight at 37° C. • 2. 10× stocks of the enzymes were prepared in broth only: • a. 10 mg of 16,000 U/mg Trypsin added to 16 ml of broth to give 10,000 U/ml (10×) stock. • b. 25 mg of 4 U/mg Papain added to 1 ml of broth to give 100 U/ml (10×) stock. • c. 10 mg of 7.5 U/mg proteinase K added to 3 ml of broth to give a 25 U/ml (10×) stock. • d. 10.5 ul of 239 U/ml chymotrypsin added to 239.5 ul of broth to give a 10 U/ml stock. • 3. The inoculums were then centrifuged at approximately 14030 RCF for one hour. • 4. The supernatant was then taken, tested for adenylate kinase activity (described below), and diluted with broth only if needed to give about 10^5 cpm/ml. • 5. The supernatant was then assayed for adenylate kinase activity at time point zero in triplicate and averaged. • 6. 1.5 ml solutions of the supernatants were prepared with the correct concentration of enzyme, or broth for control. These were incubated at 37° C. • 7. Samples were then taken and assayed in triplicate for adenylate kinase activity at 10, 30, 60 and 120 minutes. • 8. The triplicates were averaged, and normalised by dividing by the time point zero average. Adenylate Kinase Assay (AK Only No Cells) • 1. […] added to a cuvette. • 2. […] RLU read immediately. […]
Substance,"AK activity, RLU ([1]; incubated 1 hour at pH 3)","AK activity, RLU ([1]; incubated 1 hour at pH 4)","AK activity, RLU ([1]; incubated 1 hour at pH 5)","AK activity, RLU ([1]; incubated 1 hour at pH 6)","AK activity, RLU ([1]; incubated 1 hour at pH 7.5 (control, normal assay conditions))","AK activity, RLU ([1]; incubated 1 hour at pH 9)","AK activity, RLU ([1]; incubated 1 hour at pH 10)","AK activity, RLU ([1]; incubated 1 hour at pH 11)","AK activity, RLU ([1]; incubated 1 hour at pH 12)",AK activity relative to control ([2]; acidic incubation: pH 4 for 15 minutes),reduction in AK activity ([2]; incubation at pH 4) [fold],AK activity relative to control ([2]; transient pH drop: reduced to pH 4 and returned to pH 7.5),degradation of AK extracted from different organisms [3]
adenylate kinase [AK],15.7 RLU (10^3),11.1 RLU (10^3),299.0 RLU (10^3),333.5 RLU (10^3),288.2 RLU (10^3),262.4 RLU (10^3),214.5 RLU (10^3),201.2 RLU (10^3),88.6 RLU (10^3),13% and 8%,~10,91% and 89%,–
chymotrypsin,–,–,–,–,–,–,–,–,–,–,–,–,degraded the AK in a similar manner to trypsin
